Assay [1] deals with T1, Recombinant STAT3 protein (STAT3 (G127-I722)) (Homo sapiens, UniProt P40763).
T1 construct: Recombinant STAT3 protein (STAT3 (G127-I722))
As to the kind of experiment: STAT3 Fluorescence Polarization (FP) Assay. The assay is classed as binding. To be noted: STAT3 (G127-I722) 25 nM, probe 5-FAM-GpYLPQTV-NH2 2 nM, 45-minute incubation; read-out: STAT3 (FP assay IC50 class). Put shortly:
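Compounds in serial dilution receive a premix of STAT3 (G127-I722, 25 nM) and fluorescent phosphotyrosine peptide 5-FAM-GpYLPQTV-NH2 (2 nM) at pH 7.4. After 45 min at room temperature, FP is measured and IC50 derived by nonlinear regression.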

For assay [2], the target named is T2, Recombinant STAT6 protein (STAT6 (W123-T658)) (Homo sapiens, UniProt P42226).
T2 construct: Recombinant STAT6 protein (STAT6 (W123-T658))
T2 sequence (P42226 123-658): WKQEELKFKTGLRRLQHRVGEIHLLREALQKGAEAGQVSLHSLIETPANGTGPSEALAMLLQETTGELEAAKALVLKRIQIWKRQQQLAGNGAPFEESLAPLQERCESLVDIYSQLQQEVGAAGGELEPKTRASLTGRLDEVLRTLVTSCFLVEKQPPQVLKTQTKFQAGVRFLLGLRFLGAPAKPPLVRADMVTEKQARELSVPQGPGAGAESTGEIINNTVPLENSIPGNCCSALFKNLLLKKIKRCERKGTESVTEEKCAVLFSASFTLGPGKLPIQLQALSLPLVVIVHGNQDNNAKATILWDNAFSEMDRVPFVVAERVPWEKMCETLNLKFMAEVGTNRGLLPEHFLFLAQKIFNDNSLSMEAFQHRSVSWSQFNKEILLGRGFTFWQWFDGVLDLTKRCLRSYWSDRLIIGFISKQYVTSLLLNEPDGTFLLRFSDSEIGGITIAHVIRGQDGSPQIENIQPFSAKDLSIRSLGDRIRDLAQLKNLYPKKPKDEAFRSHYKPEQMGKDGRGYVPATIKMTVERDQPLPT
Put plainly: STAT6 Fluorescence Polarization (FP) Assay. The assay is classed as binding. To be noted: STAT6 (W123-T658) 250 nM, probe 5-FAM-Ap[…]-NH2 2 nM, 45-minute incubation; read-out: STAT6 (FP assay IC50 class). In short, it runs like this: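 Displacement of a fluorescent phosphotyrosine peptide (2 nM) from 250 nM STAT6 (W123-T658) is measured by polarization after a 45-minute room-temperature incubation. Compounds are titrated serially at 1% DMSO, and IC50 values derive from regression of mP on log concentration.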

The structures appear in SMILES notation. Where only a bound is given, the exact number is not on record here.

T1 sequence (P40763 127-722): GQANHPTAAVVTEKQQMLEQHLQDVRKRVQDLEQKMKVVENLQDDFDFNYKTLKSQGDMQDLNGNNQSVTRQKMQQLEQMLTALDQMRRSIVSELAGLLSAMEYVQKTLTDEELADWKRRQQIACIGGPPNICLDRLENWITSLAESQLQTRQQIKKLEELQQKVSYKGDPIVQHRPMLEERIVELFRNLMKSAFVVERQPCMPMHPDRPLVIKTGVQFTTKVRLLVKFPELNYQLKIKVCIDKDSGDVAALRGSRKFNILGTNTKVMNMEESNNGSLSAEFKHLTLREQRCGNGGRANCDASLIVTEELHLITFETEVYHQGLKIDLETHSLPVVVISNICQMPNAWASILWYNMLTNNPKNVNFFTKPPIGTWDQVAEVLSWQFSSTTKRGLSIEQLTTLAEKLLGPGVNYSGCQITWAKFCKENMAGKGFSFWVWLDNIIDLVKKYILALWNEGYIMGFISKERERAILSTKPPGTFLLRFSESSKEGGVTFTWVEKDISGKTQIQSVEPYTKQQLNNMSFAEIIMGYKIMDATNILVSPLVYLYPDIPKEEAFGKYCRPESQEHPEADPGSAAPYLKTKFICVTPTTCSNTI

Regarding `Cc1cc(C2CN(C(=O)[C@@H]3CC[C@@H]4CCCC[C@H](NC(=O)c5cc6cc(C(F)(F)P(=O)(O)O)ccc6s5)C(=O)N43)CC2C#N)cc(=O)[nH]1` (single isomer, unassigned) [Compound 876], the 50% inhibitory concentration (IC50) in assay [1] was in the range of 1000 to 10000 nM; in assay [2] it was 300 to 3000 nM.
Regarding `O=C(N[C@H]1CCC[C@H]2CC[C@@H](C(=O)N3CC(C4COC4)C3)N2C1=O)c1cc2cc(C(F)(F)P(=O)(O)O)ccc2s1` [Compound 785, (difluoro(2-(((3S,6S,9aS)-3-(3-(oxetan-3-yl)azetidine-1-carbonyl)-5-oxooctahydro-1H-pyrrolo[1,2-a]azepin-6-yl)carbamoyl)benzo [b]thiophen-5-yl)methyl) phosphonic acid], the IC50 in assay [1] was 100 to 1000 nM; in assay [2], 3000 to 30000 nM.
For `O=C(N[C@H]1CCCC[C@H]2CC[C@@H](C(=O)N3C(=O)N(c4ccn(C(F)F)c(=O)c4)C(=O)C34CC4)N2C1=O)c1cc2cc(C(F)P(=O)(O)O)ccc2s1` (stereo partly drawn) [Compound 572, ((2-(((3S,6S,10aS)-3-(6-(1-(difluoromethyl)-2-oxo-1,2-dihydropyridin-4-yl)-5,7-dioxo-4,6-diazaspiro[2.4]heptane-4-carbonyl)-5-oxodecahydropyrrolo[1,2-a]azocin-6-yl)carbamoyl)benzo[b]thiophen-5-yl)fluoromethyl)phosphonic acid], the half-inhibitory concentration (IC50) fell in the range of 1000 to 10000 nM in assay [1] and 300 to 3000 nM in assay [2].
As to `C[C@H]1C[C@H]2CC[C@@H](C(=O)N3C[C@@H](c4cccnc4)CC34CC4)N2C(=O)[C@@H](NC(=O)c2cc3cc([C@H](F)P(=O)(O)O)ccc3s2)C1` [Compound 834, ((R)-fluoro(2-(((3S,6S,8R,9aR)-8-methyl-5-oxo-3-((R)-6-(pyridin-3-yl)-4-azaspiro[2.4]heptane-4-carbonyl)octahydro-1H-pyrrolo[1,2-a]azepin-6-yl)carbamoyl)benzo [b]thiophen-5-yl)methyl) phosphonic acid], the concentration for half-maximal inhibition (IC50) in assay [1] was 100 to 1000 nM; in assay [2] it was at most 300 nM.
Consider `CC1(c2ccccn2)CN(C(=O)[C@@H]2CC[C@@H]3CCC[C@H](NC(=O)c4cc5cc(CP(=O)(O)O)ccc5s4)C(=O)N32)C1` [Compound 548, ((2-(((3S,6S,9aS)-3-(3-methyl-3-(pyridin-2-yl)azetidine-1-carbonyl)-5-oxooctahydro-1H-pyrrolo[1,2-a]azepin-6-yl)carbamoyl)benzo[b]thiophen-5-yl)methyl)phosphonic acid], for which the half-inhibitory concentration (IC50) was 1000 to 10000 nM in assay [1] and 3000 to 30000 nM in assay [2].
The corresponding values for `N#C[C@@H]1[C@@H](c2cncc(Cl)c2)CN(C(=O)[C@@H]2CC[C@@H]3CCCC[C@H](NC(=O)c4cc5cc([C@H](F)P(=O)(O)O)ccc5s4)C(=O)N32)C12CC2` (single isomer, unassigned) [Compound 845] are 1000 to 10000 nM and at most 300 nM.
Turning to `Cc1nnc([C@H]2[C@H](c3ccccc3)CN2C(=O)[C@@H]2CC[C@@H]3CCC[C@H](NC(=O)c4cc5cc(C(F)P(=O)(O)O)ccc5s4)C(=O)N32)o1` (some centres unmarked) [Compound 673], the figures for the IC50 in assay [1] and in assay [2] were 100 to 1000 nM and 3000 to 30000 nM, respectively.
The corresponding values for `N#C[C@H]1[C@H](c2ccccc2)CN(C(=O)[C@@H]2CC[C@@H]3C[C@@H](N4CCC4)CC[C@H](NC(=O)c4cc5cc([C@@H](F)P(=O)(O)O)ccc5s4)C(=O)N32)C12CC2` (single isomer, unassigned) [Compound 937] are 1000 to 10000 nM and at most 300 nM.
The corresponding values for `N#Cc1cnc(C2CN(C(=O)[C@@H]3CC[C@@H]4CCCC[C@H](NC(=O)c5cc6cc(C(F)(F)P(=O)(O)O)ccc6s5)C(=O)N43)C2)nc1` [Compound 806, ((2-(((3S,6S,10aS)-3-(3-(5-cyanopyrimidin-2-yl)azetidine-1-carbonyl)-5-oxodecahydropyrrolo [1,2-a]azocin-6-yl)carbamoyl)benzo [b]thiophen-5-yl)difluoromethyl) phosphonic acid] are below 100 nM and 3000 to 30000 nM.
Consider `O=C(N[C@H]1CC2(CC[C@H]3CC[C@@H](C(=O)N4CC(c5cccnc5)C4)N3C1=O)CC2)c1cc2cc(CP(=O)(O)O)ccc2s1` [Compound 216, ((2-(((3′S,6′S,10a′S)-5′-oxo-3′-(3-(pyridin-3-yl)azetidine-1-carbonyl)octahydro-5′H-spiro[cyclopropane-1,8′-pyrrolo[1,2-a]azocin]-6′-yl)carbamoyl)benzo[b]thiophen-5-yl)methyl)phosphonic acid], for which the results for the 50% inhibitory concentration (IC50) in assay [1] and in assay [2] were 100 to 1000 nM and 3000 to 30000 nM, respectively.
Turning to `COc1ccnc(C(F)F)c1C1CN(C(=O)[C@@H]2CC[C@@H]3CCC[C@H](NC(=O)c4cc5cc(CP(=O)(O)O)ccc5s4)C(=O)N32)C1` [Compound 594, ((2-(((3S,6S,9aS)-3-(3-(2-(difluoromethyl)-4-methoxypyridin-3-yl)azetidine-1-carbonyl)-5-oxooctahydro-1H-pyrrolo[1,2-a]azepin-6-yl)carbamoyl)benzo [b]thiophen-5-yl)methyl) phosphonic acid], the IC50 in assay [1] lay in the range of 1000 to 10000 nM; in assay [2], 3000 to 30000 nM.
For `N#C[C@@H]1CN(C(=O)[C@@H]2CC[C@@H]3CCCC[C@H](NC(=O)c4cc5cc([C@H](F)P(=O)(O)O)ccc5s4)C(=O)N32)C[C@H]1c1cc[nH]c(=O)c1` (single isomer, unassigned) [Compound 872] the same measures were 100 to 1000 nM and at most 300 nM.
For `Cc1cc(C2CN(C(=O)[C@@H]3CC[C@@H]4CCC[C@H](NC(=O)c5cc6cc(C(F)P(=O)(O)O)ccc6s5)C(=O)N43)C2)ccn1` (stereo partly drawn) [Compound 769, (fluoro(2-(((3S,6S,9aS)-3-(3-(2-methylpyridin-4-yl)azetidine-1-carbonyl)-5-oxooctahydro-1H-pyrrolo[1,2-a]azepin-6-yl)carbamoyl)benzo [b]thiophen-5-yl)methyl) phosphonic acid] the same measures were below 100 nM and 3000 to 30000 nM.
For the compound `O=C(N[C@H]1CCC[C@H]2CC[C@@H](C(=O)N3CCC(c4cc[nH]n4)CC3)N2C1=O)c1cc2cc(C(F)P(=O)(O)O)ccc2s1` (stereo partly drawn) [Compound 760, ((2-(((3S,6S,9aS)-3-(4-(1H-pyrazol-3-yl)piperidine-1-carbonyl)-5-oxooctahydro-1H-pyrrolo[1,2-a]azepin-6-yl)carbamoyl)benzo [b]thiophen-5-yl)fluoromethyl) phosphonic acid], the figures for the concentration for half-maximal inhibition (IC50) in assay [1] and in assay [2] were 1000 to 10000 nM and 3000 to 30000 nM, respectively.
Turning to `O=C(N[C@H]1CCCC[C@H]2CC[C@@H](C(=O)N[C@H]3COCC3F)N2C1=O)c1cc2cc(C(F)(F)P(=O)(O)O)ccc2s1` (relative stereo) [Compound 1109, (difluoro(2-(((3S,6S,10aS)-3-(((rel-trans)-4-fluorotetrahydrofuran-3-yl)carbamoyl)-5-oxodecahydropyrrolo[1,2-a]azocin-6-yl)carbamoyl)benzo[b]thiophen-5-yl)methyl)phosphonic acid], the 50% inhibitory concentration (IC50) is 100 to 1000 nM in assay [1] and 300 to 3000 nM in assay [2].
The corresponding values for `Cc1ccncc1C1CN(C(=O)[C@@H]2CC[C@@H]3CC(C)C[C@H](NC(=O)c4cc5cc(CP(=O)(O)O)ccc5s4)C(=O)N32)C1` (stereo partly drawn) [Compound 500, ((2-(((3S,6S,9aR)-8-methyl-3-(3-(4-methylpyridin-3-yl)azetidine-1-carbonyl)-5-oxooctahydro-1H-pyrrolo[1,2-a]azepin-6-yl)carbamoyl)benzo[b]thiophen-5-yl)methyl)phosphonic acid] are 100 to 1000 nM and 3000 to 30000 nM.
The corresponding values for `Cn1ccc(=O)c(C2CN(C(=O)[C@@H]3CC[C@@H]4CCC[C@H](NC(=O)c5cc6cc(C(F)P(=O)(O)O)ccc6s5)C(=O)N43)C2)c1` (stereo partly drawn) [Compound 617, (fluoro(2-(((3S,6S,9aS)-3-(3-(1-methyl-4-oxo-1,4-dihydropyridin-3-yl)azetidine-1-carbonyl)-5-oxooctahydro-1H-pyrrolo[1,2-a]azepin-6-yl)carbamoyl)benzo [b]thiophen-5-yl)methyl) phosphonic acid] are 100 to 1000 nM and 3000 to 30000 nM.
For `O=C(N[C@H]1CCC[C@H]2CC[C@@H](C(=O)N3CCn4cncc4C3)N2C1=O)c1cc2cc(C(F)(F)P(=O)(O)O)ccc2s1` [Compound 203, (difluoro(2-(((3S,6S,9aS)-5-oxo-3-(5,6,7,8-tetrahydroimidazo[1,5-a]pyrazine-7-carbonyl)octahydro-1H-pyrrolo[1,2-a]azepin-6-yl)carbamoyl)benzo[b]thiophen-5-yl)methyl)phosphonic acid], the half-maximal inhibitory concentration (IC50) in assay [1] fell in the range of 100 to 1000 nM; in assay [2] it was 300 to 3000 nM.
With `COc1nccc(C2CN(C(=O)[C@@H]3CC[C@@H]4CCC[C@H](NC(=O)c5cc6cc([C@@H](F)P(=O)(O)O)ccc6s5)C(=O)N43)C2)c1F` (single isomer, unassigned) [Compound 700], the figures for the IC50 in assay [1] and in assay [2] were 100 to 1000 nM and 3000 to 30000 nM, respectively.

The values above are taken from patent publication US20250215029A1 (Recludix Pharma, Inc., priority 2022, published 2025).
